# Columns and labels:
# [1] = biological target: T1, A2A human adenosine receptor (A2AR) (Homo sapiens, UniProt P29274); assay: Radioligand binding competition assay, human A2A receptor in transfected HeLa cells; conditions: for % displacement at 0.1 μM (A2AR): 0.1 µM compound; for Ki: Cheng-Prusoff approximation
# T1 construct: expressed in transfected cells; host or cells: HeLa
# Procedure: (§1) Bioactivity testing was performed using A1 and A2A human adenosine receptors expressed in transfected CHO (A1) and HeLa (A2A) cells, as well as AD293 cells that were transiently transfected with human PDE10A. Table 1 includes the list of synthesized 4,6-substituted 2-amino-pyridin-3-carbonitriles, along with their Ki values against A1R, A2AR, and IC50 values against PDE10A.
# (§2) Pharmacological evaluation was performed in a radioligand binding competition assay, using A1, A2A, A2B, and A3 human receptors expressed in transfected CHO (A1), HeLa (A2A and A3), and HEK-293 (A2B) according to the procedure reported by Bosch et al..
# A3 human receptor (A3R) = biological target: T2, A3 human receptor (A3R) (Homo sapiens, UniProt P0DMS8); assay: Radioligand binding competition assay, human A3 receptor in transfected HeLa cells; conditions: 0.1 µM compound; read-out: percentage displacement at 0.1µM (A3R)
# T2 construct: expressed in transfected cells; host or cells: HeLa
# T2 sequence (P0DMS8 1-318): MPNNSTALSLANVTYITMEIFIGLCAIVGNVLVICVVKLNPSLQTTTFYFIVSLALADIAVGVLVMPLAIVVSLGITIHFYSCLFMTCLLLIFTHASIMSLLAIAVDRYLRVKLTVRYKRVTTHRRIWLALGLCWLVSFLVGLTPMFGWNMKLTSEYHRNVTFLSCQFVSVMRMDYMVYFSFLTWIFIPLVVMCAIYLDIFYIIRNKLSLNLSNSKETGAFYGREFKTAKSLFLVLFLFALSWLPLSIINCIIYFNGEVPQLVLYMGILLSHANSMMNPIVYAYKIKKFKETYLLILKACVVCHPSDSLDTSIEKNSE
# Procedure: as §2
# human PDE10A = biological target: T3, human PDE10A (Homo sapiens, UniProt Q9Y233); assay: Phosphodiesterase activity, AD293 cells transiently transfected with human PDE10A; type: biochemical; conditions: for inhibition at 10 µM: read-out: % inhibition at 10 μM (PDE10A), 10 μM compound; for IC50: mean of 3 experiments in duplicate
# T3 construct: expressed in transfected cells; host or cells: AD293 (transient transfection)
# T3 sequence (Q9Y233 267-1055 limits assumed): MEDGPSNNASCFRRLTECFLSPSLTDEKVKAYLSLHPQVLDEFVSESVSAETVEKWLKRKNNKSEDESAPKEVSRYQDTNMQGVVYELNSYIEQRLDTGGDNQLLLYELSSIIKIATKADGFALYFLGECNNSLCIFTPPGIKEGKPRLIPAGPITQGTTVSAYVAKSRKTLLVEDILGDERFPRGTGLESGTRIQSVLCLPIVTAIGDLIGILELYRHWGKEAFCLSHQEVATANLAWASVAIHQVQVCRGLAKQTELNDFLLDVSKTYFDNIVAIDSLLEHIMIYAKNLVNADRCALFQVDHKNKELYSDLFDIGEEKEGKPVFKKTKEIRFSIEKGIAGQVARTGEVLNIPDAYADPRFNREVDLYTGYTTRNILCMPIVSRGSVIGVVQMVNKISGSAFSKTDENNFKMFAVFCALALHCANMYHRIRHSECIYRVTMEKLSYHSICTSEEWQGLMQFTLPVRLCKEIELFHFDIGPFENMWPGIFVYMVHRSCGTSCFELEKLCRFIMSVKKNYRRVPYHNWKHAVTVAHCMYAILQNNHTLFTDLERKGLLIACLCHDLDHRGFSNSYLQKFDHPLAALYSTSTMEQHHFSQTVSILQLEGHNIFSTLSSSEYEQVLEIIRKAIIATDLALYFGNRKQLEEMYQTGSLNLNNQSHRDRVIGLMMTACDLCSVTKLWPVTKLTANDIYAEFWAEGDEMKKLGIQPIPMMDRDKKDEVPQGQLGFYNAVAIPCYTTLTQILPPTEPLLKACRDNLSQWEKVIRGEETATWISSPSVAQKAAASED
# Procedure: as §1
# (§3) The activity measurements against the phosphodiesterases PDE7A, PDE7B, PDE9A and PDE10A were performed using AD293 cells that were transiently and separately transfected with human PDE7A, PDE7B, PDE9A, and PDE10A following the procedure described by Shipe et al..
# human PDE7B = biological target: T4, human PDE7B (Homo sapiens, UniProt Q9NP56); assay: Phosphodiesterase activity, AD293 cells transiently transfected with human PDE7B; type: biochemical; conditions: for inhibition at 10 µM: 10 µM compound, read-out: Percentage inhibition at 10µM (PDE7B)
# T4 construct: expressed in transfected cells; host or cells: AD293 (transient transfection)
# T4 sequence (Q9NP56 whole entry): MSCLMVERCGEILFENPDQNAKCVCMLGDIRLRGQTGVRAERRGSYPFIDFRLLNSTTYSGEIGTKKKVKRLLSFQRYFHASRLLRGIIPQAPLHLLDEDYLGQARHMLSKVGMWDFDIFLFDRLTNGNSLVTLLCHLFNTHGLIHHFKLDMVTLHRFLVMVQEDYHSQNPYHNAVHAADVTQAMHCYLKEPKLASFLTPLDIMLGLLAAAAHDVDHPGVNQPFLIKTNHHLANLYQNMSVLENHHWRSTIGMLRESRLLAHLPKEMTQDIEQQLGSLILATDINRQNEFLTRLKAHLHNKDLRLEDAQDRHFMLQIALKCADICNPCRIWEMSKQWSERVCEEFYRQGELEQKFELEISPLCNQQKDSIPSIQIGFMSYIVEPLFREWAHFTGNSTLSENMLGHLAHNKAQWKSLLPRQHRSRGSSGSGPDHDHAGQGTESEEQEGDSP
# Procedure: as §3
# [2] = biological target: T5, A2B human receptor (A2BR) (Homo sapiens, UniProt P29275); assay: Radioligand binding competition assay, human A2B receptor in transfected HEK-293 cells; conditions: 0.1 µM compound; read-out: percentage displacement at 0.1µM (A2BR)
# T5 construct: expressed in transfected cells; host or cells: HEK-293
# T5 sequence (P29275 1-332): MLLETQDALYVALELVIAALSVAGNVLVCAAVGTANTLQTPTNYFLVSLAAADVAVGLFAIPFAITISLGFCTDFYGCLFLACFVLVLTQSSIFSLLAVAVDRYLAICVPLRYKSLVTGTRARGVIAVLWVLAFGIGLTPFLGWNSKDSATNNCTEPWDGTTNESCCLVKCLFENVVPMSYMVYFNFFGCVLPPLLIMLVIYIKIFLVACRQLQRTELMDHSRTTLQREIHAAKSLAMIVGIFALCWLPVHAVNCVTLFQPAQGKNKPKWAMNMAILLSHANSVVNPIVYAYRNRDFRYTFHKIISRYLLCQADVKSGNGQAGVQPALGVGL
# Procedure: as §2
# [3] = biological target: T6, A1 human adenosine receptor (A1R) (Homo sapiens, UniProt P30542); assay: Radioligand binding competition assay, human A1 receptor in transfected CHO cells; conditions: for Ki: Cheng-Prusoff approximation; for inhibition at 0.1 µM: 0.1 µM compound, read-out: % displacement at 0.1 μM (A1R)
# T6 construct: expressed in transfected cells; host or cells: CHO
# T6 sequence (P30542 1-326): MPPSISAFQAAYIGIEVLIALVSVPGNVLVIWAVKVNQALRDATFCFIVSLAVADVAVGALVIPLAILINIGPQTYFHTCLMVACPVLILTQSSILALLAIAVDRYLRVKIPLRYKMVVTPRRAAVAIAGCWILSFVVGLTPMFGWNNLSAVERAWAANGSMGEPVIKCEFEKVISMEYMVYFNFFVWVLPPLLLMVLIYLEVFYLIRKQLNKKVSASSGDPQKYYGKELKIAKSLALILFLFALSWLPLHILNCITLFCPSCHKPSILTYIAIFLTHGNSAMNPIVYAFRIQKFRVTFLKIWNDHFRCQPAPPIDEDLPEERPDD
# Procedure: Pharmacological evaluation was performed in a radioligand binding competition assay, using A1, A2A, A2B, and A3 human receptors expressed in transfected CHO (A1), HeLa (A2A and A3), and HEK-293 (A2B) according to the procedure reported by Bosch et al. [78].
# human PDE9A = biological target: T7, human PDE9A (Homo sapiens, UniProt O76083); assay: Phosphodiesterase activity, AD293 cells transiently transfected with human PDE9A; type: biochemical; conditions: 10 µM compound; read-out: Percentage inhibition at 10µM (PDE9A)
# T7 construct: expressed in transfected cells; host or cells: AD293 (transient transfection)
# T7 sequence (O76083 whole entry): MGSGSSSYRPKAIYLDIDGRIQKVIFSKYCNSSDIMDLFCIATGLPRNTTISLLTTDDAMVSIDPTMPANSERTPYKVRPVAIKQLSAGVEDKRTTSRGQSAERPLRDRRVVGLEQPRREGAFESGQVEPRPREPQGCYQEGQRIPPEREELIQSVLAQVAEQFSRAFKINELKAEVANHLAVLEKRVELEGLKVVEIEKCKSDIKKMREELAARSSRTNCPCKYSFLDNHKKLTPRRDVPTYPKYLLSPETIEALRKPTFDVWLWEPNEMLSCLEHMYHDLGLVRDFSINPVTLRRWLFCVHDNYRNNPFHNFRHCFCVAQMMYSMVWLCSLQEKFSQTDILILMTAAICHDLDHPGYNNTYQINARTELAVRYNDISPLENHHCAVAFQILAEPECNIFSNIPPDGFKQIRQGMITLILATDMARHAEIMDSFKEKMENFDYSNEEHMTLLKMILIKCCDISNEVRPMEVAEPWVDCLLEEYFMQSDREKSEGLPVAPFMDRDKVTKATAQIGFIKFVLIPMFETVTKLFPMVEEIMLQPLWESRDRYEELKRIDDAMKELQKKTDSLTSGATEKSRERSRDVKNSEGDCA
# Procedure: as §3
# human PDE7A = biological target: T8, human PDE7A (Homo sapiens, UniProt Q13946); assay: Phosphodiesterase activity, AD293 cells transiently transfected with human PDE7A; type: biochemical; conditions: for inhibition at 10 µM: 10 µM compound, read-out: Percentage inhibition at 10µM (PDE7A)
# T8 construct: expressed in transfected cells; host or cells: AD293 (transient transfection)
# T8 sequence (Q13946 whole entry): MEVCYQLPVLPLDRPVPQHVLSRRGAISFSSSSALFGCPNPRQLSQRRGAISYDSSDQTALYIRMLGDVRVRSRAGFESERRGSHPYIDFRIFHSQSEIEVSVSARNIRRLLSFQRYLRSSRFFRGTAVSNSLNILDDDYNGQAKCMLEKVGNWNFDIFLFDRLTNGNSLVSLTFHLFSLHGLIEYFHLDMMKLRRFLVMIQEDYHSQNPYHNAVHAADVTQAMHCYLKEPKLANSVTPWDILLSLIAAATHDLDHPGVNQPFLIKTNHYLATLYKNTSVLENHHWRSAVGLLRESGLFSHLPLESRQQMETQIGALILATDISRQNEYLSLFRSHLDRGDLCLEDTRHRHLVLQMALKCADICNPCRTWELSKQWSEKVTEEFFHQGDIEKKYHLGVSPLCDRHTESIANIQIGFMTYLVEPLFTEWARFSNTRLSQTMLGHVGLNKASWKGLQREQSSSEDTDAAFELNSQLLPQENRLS
# Procedure: as §3
# T1 sequence (P29274 whole entry): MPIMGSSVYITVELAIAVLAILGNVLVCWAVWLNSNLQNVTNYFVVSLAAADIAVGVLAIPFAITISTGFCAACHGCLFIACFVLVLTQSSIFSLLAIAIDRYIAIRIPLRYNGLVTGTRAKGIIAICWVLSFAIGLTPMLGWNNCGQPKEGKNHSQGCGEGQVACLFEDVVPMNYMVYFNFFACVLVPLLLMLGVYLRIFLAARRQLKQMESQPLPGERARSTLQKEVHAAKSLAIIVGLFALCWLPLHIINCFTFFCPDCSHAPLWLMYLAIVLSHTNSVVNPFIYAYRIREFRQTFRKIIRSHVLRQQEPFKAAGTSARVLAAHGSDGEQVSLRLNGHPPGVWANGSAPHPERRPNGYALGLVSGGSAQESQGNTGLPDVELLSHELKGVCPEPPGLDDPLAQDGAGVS
SMILES,% displacement at 0.1 μM (A2AR) [1] [%],inhibition at 0.1 µM (A3 human receptor (A3R)) [%],inhibition at 10 µM (human PDE10A) [%],inhibition at 10 µM (human PDE7B) [%],inhibition at 0.1 µM [2] [%],Ki [3] [nM],inhibition at 10 µM (human PDE9A) [%],melting point [°C],inhibition at 10 µM (human PDE7A) [%],selectivity over all tested off-targets (human PDE10A; PDE10A IC50 versus lowest selectivity at PDE7B (55% inhibition at 10 µM)),IC50 (human PDE10A) [nM],inhibition at 0.1 µM [3] [%],Ki [1] [nM],IC50 (human PDE7A) [nM],IC50 (human PDE7B) [nM]
"N#Cc1c(-c2ccc3c(c2)OCO3)cc(-c2ccccc2)nc1N [Compound 7, 2-amino-4-(2H-1,3-benzodioxol-5-yl)-6-phenylpyridine-3-carbonitrile]",5,2,17,8,1,25 ± 2,19,220 to 221,22,,,,,,
"N#Cc1c(C2CCCCC2)cc(-c2ccccc2)nc1N [Compound 8, 2-amino-4-cyclohexyl-6-phenylpyridine-3-carbonitrile]",50,13,,55,1,294 ± 10,30,125 to 126,26,twofold,2400 ± 200,,,,
"N#Cc1c(C2CCCCC2)cc(-c2ccccc2F)nc1N [Compound 9, 2-amino-4-cyclohexyl-6-(2-fluorophenyl)pyridine-3-carbonitrile]",34,7,68,34,2,84 ± 8,1,126 to 127,19,,,,,,
"Cc1ccccc1-c1cc(C2CCCCC2)c(C#N)c(N)n1 [Compound 10, 2-amino-4-cyclohexyl-6-(2-methylphenyl)pyridine-3-carbonitrile]",18,28,,35,1,,9,120 to 121,31,,3700 ± 300,17,,,
"N#Cc1c(C2CCCCC2)cc(-c2cccs2)nc1N [Compound 11, 2-amino-4-cyclohexyl-6-(thiophen-2-yl)pyridine-3-carbonitrile]",11,26,,45,1,,6,160 to 162,33,,1200 ± 100,16,,,
"N#Cc1c(C2CCCCC2)cc(-c2ccsc2)nc1N [Compound 12, 2-amino-4-cyclohexyl-6-(thiophen-3-yl)pyridine-3-carbonitrile]",60,14,,60,2,,3,145 to 146,29,,900 ± 200,44,,,
"N#Cc1c(C2CCCCC2)cc(-c2ccco2)nc1N [Compound 13, 2-amino-4-cyclohexyl-6-(furan-2-yl)pyridine-3-carbonitrile]",,19,55,41,3,70 ± 3,4,177 to 178,44,,,,49 ± 4,,
"N#Cc1c(-c2ccccc2F)cc(-c2ccccc2F)nc1N [Compound 18, 2-amino-4,6-bis(2-fluorophenyl)pyridine-3-carbonitrile]",,1,38,36,1,78 ± 5,0,180 to 181,25,,,,948 ± 13,,
"COc1ccccc1-c1cc(-c2ccccc2F)nc(N)c1C#N [Compound 19, 2-amino-6-(2-fluorophenyl)-4-(2-methoxyphenyl)pyridine-3-carbonitrile]",,1,73,42,2,,19,187 to 188,49,,,58,338 ± 12,,
"COc1ccccc1-c1cc(-c2ccco2)nc(N)c1C#N [Compound 21, 2-amino-6-(furan-2-yl)-4-(2-methoxyphenyl)pyridine-3-carbonitrile]",,23,,30,2,,17,187 to 188,,,10000 ± 600,38,95 ± 4,15100,
"N#Cc1c(-c2ccccc2Cl)cc(-c2ccc(O)cc2)nc1N [Compound 23, 2-amino-4-(2-chlorophenyl)-6-(4-hydroxyphenyl)pyridine-3-carbonitrile]",10,1,,,8,,25,215 to 217,,,4000 ± 300,2,,1800,7300
"N#Cc1c(-c2ccc(O)cc2)cc(-c2ccc(O)cc2)nc1N [Compound 24, 2-amino-4,6-bis(4-hydroxyphenyl)pyridine-3-carbo-nitrile]",7,1,,38,1,,7,299 to 300,47,,3100 ± 400,19,,,
